Laboratory results as given in patent US20240174690A1, “ANNULATED 2-AMINO-3-CYANO THIOPHENES AND DERIVATIVES FOR THE TREATMENT OF CANCER” (BOEHRINGER INGELHEIM INTERNATIONAL GMBH, priority 2021, published 2024).

Key:
[1] = molecular target: CYP3A4 (Homo sapiens (Human), UniProt P08684); assay: Mechanism based inhibition of CYP3A4 assay (MBI 3A4); assay type: in vitro ADME; conditions: hydroxy-midazolam formation after 30 min vs 0 min preincubation, 25 uM, human liver microsomes
Method: After preincubation, the incubate is diluted 1:10 and the substrate midazolam is added for the main incubation (15 min). The main incubation is quenched with acetonitrile and the formation of hydroxy-midazolam is quantified via LC/MS-MS. The formation of hydroxy-midazolam from the 30 min preincubation relative to the formation from the 0 min preincubation is used as a readout. Values of less than 100% mean that the substrate midazolam is metabolized to a lower extent upon 30 min preincubation compared to 0 min preincubation. In general low effects upon 30 min preincubation are desired (corresponding to values close to 100%/not different to the values determined with water control).

[2] = test system: KRAS G12C-dependent Ba/F3 cells; assay: Ba/F3 proliferation assay, KRAS G12C; assay type: cell-based; conditions: Mus musculus, BaF3, 72 h, AlamarBlue
Procedure, shortened: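 Proliferation of mutant-KRAS-driven Ba/F3 cells cultured without IL-3 is followed with AlamarBlue after compound addition. Curves are fitted from duplicate wells.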

[3] = Caco-2 assay (permeability PappAB, PappBA, efflux ratio); assay type: in vitro ADME; conditions: human, Caco-2, 10 μM test compound, pH 7.4; for Papp A→B at 90 min, 10 μM: apical to basolateral; for efflux ratio at 90 min, 10 μM: efflux ratio PappBA/PappAB, read-out: Caco ER
Source text: The assay provides information on the potential of a compound to pass the cell membrane, on the extent of oral absorption as well as on whether the compound is actively transported by uptake and/or efflux transporters. Permeability measurements across polarized, confluent Caco-2 cell monolayers grown on permeable filter supports (Corning, catalog #3391) are used. […] The receiver and donor compartments contain 0.25% bovine serum albumine (BSA) in assay buffer. Passive diffusion and/or active transport of compounds across the monolayer is measured in both apical to basolateral (a-b) and basolateral to apical (b-a) direction. a-b permeability (PappAB) represents drug absorption from the intestine into the blood and b-a permeability (PappBA) drug secretion from the blood back into the intestine via both passive permeability as well as active transport mechanisms mediated by efflux and uptake transporters that are expressed on the Caco-2 cells. After a pre-incubation of 25-30 min at 37° C., at predefined time points (0, 30, 60 and 90 min), samples were taken from the receiver and donor compartment, respectively. Concentrations of test compounds in samples were measured by HPLC/MS/MS, samples from the donor compartment were diluted 1:50 (v:v) with assay buffer, samples from receiver compartment were measured without dilution.
Apparent permeabilities in a-b (PappAB) and b-a (PappBA) directions are calculated according to the formula:
[formula] • Vrec [mL]: buffer volume in receiver compartment • Cdon [μmol/mL]: concentration of test compound in donor compartment at t=0 • ΔCrec: difference between concentrations of test compound in receiver compartment at start and end of incubation time • Δt: Incubation time • Vrec·ΔCrec/Δt [μmol/min]: Amount of compound transferred to receiver compartment per time • A [cm^2]: filter surface
Caco-2 efflux ratios (ER) are calculated as the ratio of PappBA/PappAB.

[4] = Metabolic (microsomal) stability assay, human liver microsomes (HLM); assay type: in vitro ADME; conditions: predicted clearance as percent of liver blood flow, 1 μM
Procedure, shortened: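 LC-MS/MS tracked parent disappearance at 0, 5, 15, 30 and 60 min in NADPH-initiated incubations with 1 mg/mL human microsomal protein and 1 μM compound at 37°C, pH 7.5. First-order fits gave intrinsic clearance, which was scaled up and reported as % QH. NADPH-free controls were also run.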

CYP3A4, sequence (P08684 whole entry): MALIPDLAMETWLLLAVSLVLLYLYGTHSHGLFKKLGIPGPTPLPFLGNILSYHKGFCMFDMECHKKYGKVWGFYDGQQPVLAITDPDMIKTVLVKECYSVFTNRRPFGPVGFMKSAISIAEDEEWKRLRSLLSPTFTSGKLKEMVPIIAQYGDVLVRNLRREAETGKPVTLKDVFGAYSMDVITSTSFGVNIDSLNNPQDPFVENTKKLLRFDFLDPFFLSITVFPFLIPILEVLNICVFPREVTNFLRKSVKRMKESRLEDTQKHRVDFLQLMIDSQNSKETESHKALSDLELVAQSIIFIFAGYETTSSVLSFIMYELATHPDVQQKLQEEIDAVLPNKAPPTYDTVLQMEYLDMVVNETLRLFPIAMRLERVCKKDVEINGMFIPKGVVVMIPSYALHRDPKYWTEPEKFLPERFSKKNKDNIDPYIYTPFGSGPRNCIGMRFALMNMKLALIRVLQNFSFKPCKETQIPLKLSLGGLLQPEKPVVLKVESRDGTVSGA

SMILES	MBI 3A4 [1] [%]	IC50 [2] [nM]	Papp A→B at 90 min, 10 μM [3] [×10⁻⁶ cm/s]	efflux ratio at 90 min, 10 μM [3]	HLM QH [4] [%]
C[C@H](Oc1cc(N2CCN(C)CC2)nc(-c2noc3c2CCC[C@@]32CCCc3sc(N)c(C#N)c32)n1)[C@@H]1CCCN1C [II-55]	88	297	3.5	5.4	<24
C[C@H](Oc1cc(N2CCNC[C@]23CCOC3)nc(-c2noc3c2CCC[C@@]32CCCc3sc(N)c(C#N)c32)n1)[C@@H]1CCCN1C [II-50]	54	270	0.3	111	52
C[C@H](Oc1cc(N2CCNCC23CCOC3)nc(-c2onc3c2CCC[C@@]32CCCc3sc(N)c(C#N)c32)n1)[C@@H]1CCCN1C (some centres unmarked) [I-10]	72	218	< 2.1	–	30
C[C@H](Oc1cc(N2CCNC3(CC3)C2)nc(-c2onc3c2CCC[C@@]32CCCc3sc(N)c(C#N)c32)n1)[C@@H]1CCCN1C [I-5]	34	124	1.1	29	<24
C[C@H](Oc1cc(-n2cncn2)nc(-c2noc3c2CCC[C@@]32CCCc3sc(N)c(C#N)c32)n1)[C@@H]1CCCN1C [II-70]	64	25	17	1.4	61
CO[C@@H]1C[C@@H]([C@H](C)Oc2cc(-c3cnn(C)n3)nc(-c3noc4c3CCC[C@@]43CCCc4sc(N)c(C#N)c43)n2)N(C)C1 [II-62]	53	34	19	0.3	58
C[C@H](Oc1cc(-c2ccccn2)nc(-c2noc3c2CCC[C@@]32CCCc3sc(N)c(C#N)c32)n1)[C@@H]1CCCN1C [II-85]	52	19	–	1.2	47
C[C@H](Oc1cc(-c2cc[nH]n2)nc(-c2noc3c2CCC[C@@]32CCCc3sc(N)c(C#N)c32)n1)[C@@H]1CCCN1C [II-71]	79	28	0.5	63.3	<24
C[C@H](Oc1cc(-n2cc3c(n2)CCNC3)nc(-c2noc3c2CCC[C@@]32CCCc3sc(N)c(C#N)c32)n1)[C@@H]1CCCN1C [II-53]	80	292	1.5	22	46
CO[C@@H]1C[C@@H]([C@H](C)Oc2cc(-n3ccnc3)nc(-c3noc4c3CCC[C@@]43CCCc4sc(N)c(C#N)c43)n2)N(C)C1 [II-58]	68	41	13	1.2	46
C[C@H](Oc1cc(N2C[C@H](C)N[C@@H](C)C2)nc(-c2onc3c2CCC[C@@]32CCCc3sc(N)c(C#N)c32)n1)[C@@H]1CCCN1C [I-6]	79	253	2.9	15	<24
CC(=O)N1CC=C(c2cc(O[C@@H](C)[C@@H]3CCCN3C)nc(-c3noc4c3CCC[C@@]43CCCc4sc(N)c(C#N)c43)n2)CC1 [II-81]	62	49	2	23	<24
C[C@H](Oc1cc(N2CCNC3(CC3)C2)nc(-c2noc3c2CCC[C@@]32CCCc3sc(N)c(C#N)c32)n1)[C@@H]1CCCN1C [II-54]	31	74	< 1.1	–	28
C[C@H](Oc1cc(N2C[C@H](C)N[C@@H](C)C2)nc(-c2noc3c2CCC[C@@]32CCCc3sc(N)c(C#N)c32)n1)[C@@H]1CCCN1C [II-56]	73	233	7.5	2.3	<24
Cc1cn(C)nc1-c1cc(O[C@@H](C)[C@@H]2CCCN2C)nc(-c2noc3c2CCC[C@@]32CCCc3sc(N)c(C#N)c32)n1 [II-68]	74	56	5.8	1.2	<24

Further lines, results first:

MBI 3A4 [1] [%]	IC50 [2] [nM]	Papp A→B at 90 min, 10 μM [3] [×10⁻⁶ cm/s]	efflux ratio at 90 min, 10 μM [3]	HLM QH [4] [%]	SMILES
68	21	7.9	3.2	35	CNC(=O)c1cn(-c2cc(O[C@@H](C)[C@@H]3CCCN3C)nc(-c3noc4c3CCC[C@@]43CCCc4sc(N)c(C#N)c43)n2)nn1 [II-122]
68	15	9	1.6	46	CO[C@@H]1C[C@@H]([C@H](C)Oc2cc(-c3ccn(C)n3)nc(-c3noc4c3CCC[C@@]43CCCc4sc(N)c(C#N)c43)n2)N(C)C1 [II-91]
77	7	1.4	20.7	<24	C[C@H](Oc1cc(-c2ccn(C[C@@H](C)O)n2)nc(-c2noc3c2CCC[C@@]32CCCc3sc(N)c(C#N)c32)n1)[C@@H]1CCCN1C [II-117]
64	47	< 1.7	–	<24	C[C@H](Oc1cc(-c2cn[nH]c2)nc(-c2noc3c2CCC[C@@]32CCCc3sc(N)c(C#N)c32)n1)[C@@H]1CCCN1C [II-87]
63	13	3.5	7.4	<24	C[C@H](Oc1cc(-c2ccn(C3COC3)n2)nc(-c2noc3c2CCC[C@@]32CCCc3sc(N)c(C#N)c32)n1)[C@@H]1CCCN1C [II-109]
81	11	5.9	5.6	<24	C[C@H](O)Cn1ccc(-c2cc(O[C@@H](C)[C@@H]3CCCN3C)nc(-c3noc4c3CCC[C@@]43CCCc4sc(N)c(C#N)c43)n2)n1 [II-112]
76	58	< 9.7	–	<24	C[C@H](Oc1cc(-c2cccc(CO)c2)nc(-c2noc3c2CCC[C@@]32CCCc3sc(N)c(C#N)c32)n1)[C@@H]1CCCN1C [II-97]
58	5	10	2.4	45	CO[C@@H]1C[C@@H]([C@H](C)Oc2cc(-c3ccn(C4COC4)n3)nc(-c3noc4c3CCC[C@@]43CCCc4sc(N)c(C#N)c43)n2)N(C)C1 [II-107]
67	14	–	0.5	47	C[C@H](Oc1cc(-n2ccc(Br)n2)nc(-c2noc3c2CCC[C@@]32CCCc3sc(N)c(C#N)c32)n1)[C@@H]1CCCN1C [II-110]
76	10	–	1.5	<24	C[C@H](Oc1cc(-c2cnsc2)nc(-c2noc3c2CCC[C@@]32CCCc3sc(N)c(C#N)c32)n1)[C@@H]1CCCN1C [II-111]
45	25	–	0.7	25	C[C@H](Oc1cc(-n2cc(C3CC3)nn2)nc(-c2noc3c2CCC[C@@]32CCCc3sc(N)c(C#N)c32)n1)[C@@H]1CCCN1C [II-118]
68	30	12	2.2	37	C[C@H](Oc1cc(C2COCCO2)nc(-c2noc3c2CCC[C@@]32CCCc3sc(N)c(C#N)c32)n1)[C@@H]1CCCN1C (some centres unmarked) [II-95]
64	15	–	4.6	28	C[C@H](Oc1cc(-n2cc(-c3cccnc3)nn2)nc(-c2noc3c2CCC[C@@]32CCCc3sc(N)c(C#N)c32)n1)[C@@H]1CCCN1C [II-123]
